Measured values published in PubChem BioAssay (NCI).
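Dose response: 5 concentrations. Exposure: 48 h. Format: 96-well plates. Endpoint: linear interpolation; highest concentration if not reached. At the TGI there is no net growth.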

Tests used:
Experiment in all cases: NCI-60 cell line screen, 48 h
NCI-H522 lung = tested on: NCI-H522 lung
MALME-3M melanoma = tested on: MALME-3M melanoma
SNB-75 CNS = tested on: SNB-75 CNS
SK-MEL-28 melanoma = tested on: SK-MEL-28 melanoma
MCF7 breast = tested on: MCF7 breast
SK-MEL-5 melanoma = tested on: SK-MEL-5 melanoma
HL-60(TB) leukemia = tested on: HL-60(TB) leukemia
A498 renal = tested on: A498 renal
HT29 colon = tested on: HT29 colon
MDA-MB-231 breast = tested on: MDA-MB-231 breast

With `Cn1c2c3c(F)c(F)ccc3nc-2cc2ccccc21` the TGI (NCI-H522 lung) was 14.3 µM, the TGI (MALME-3M melanoma) was 14.1 µM and the TGI (SNB-75 CNS) was 5.71 µM. For the same compound, the TGI (SK-MEL-28 melanoma) was 18.3 µM, the TGI (MCF7 breast) was 30 µM and the TGI (SK-MEL-5 melanoma) was 12.8 µM. It also gave a TGI (HL-60(TB) leukemia) of 56.6 µM, a TGI (A498 renal) of 2.89 µM and a TGI (HT29 colon) of 12.1 µM. The TGI (MDA-MB-231 breast) was 20.8 µM.
With `CC(=O)N=C1N(/C=C2\C(=O)Oc3ccccc3C2=O)C(=O)/C(=C/c2ccccc2Cl)N1C` the TGI (NCI-H522 lung) was over 100 µM, the TGI (MALME-3M melanoma) was over 100 µM and the TGI (SNB-75 CNS) was over 100 µM. For the same compound, the TGI (SK-MEL-28 melanoma) was over 100 µM, the TGI (MCF7 breast) was over 100 µM and the TGI (SK-MEL-5 melanoma) was over 100 µM. The TGI (HL-60(TB) leukemia) was over 100 µM, the TGI (A498 renal) was 96.7 µM and the TGI (HT29 colon) was over 100 µM. It also gave a TGI (MDA-MB-231 breast) of over 100 µM.
Compound `COc1cccc2cc(C(=O)Nc3ccccn3)c(=N)oc12` has a TGI (NCI-H522 lung) of over 100 µM, a TGI (MALME-3M melanoma) of over 100 µM and a TGI (SNB-75 CNS) of over 100 µM. For the same compound, the TGI (SK-MEL-28 melanoma) was over 100 µM, the TGI (MCF7 breast) was over 100 µM and the TGI (SK-MEL-5 melanoma) was over 100 µM. The TGI (HL-60(TB) leukemia) was 82.9 µM, the TGI (A498 renal) was over 100 µM and the TGI (HT29 colon) was over 100 µM. The TGI (MDA-MB-231 breast) was over 100 µM.
